Structures can show the parent of a compound that is named as a salt. Where two headings read alike, the source gives them in different places.
Experiments:
[1] = test system: N2a695 cells; assay: Aβ38, Aβ40, Aβ42 in conditioned media of N2a695 cells, MSD ELISA; type: cell-based; details: N2a695 cell supernatant, 5 h, single experiment
[2] = test system: β- and γ-cleavages of APP; assay: Aβ in N2a cells transiently transfected with APP-FL or APP99 (APP-βCTF): BACE vs γ-secretase cleavage; type: cell-based; details: N2a cells transiently transfected with APP695 (APP-FL) or APP C99, 5 h
Method: To determine effects of compounds on BACE1 vs. GS inhibition, we used N2a cells transiently transfected with full length APP (APP-FL) or with APP99 (APP-βCTF) as described previously ([Netzer et al., 2017]; [Sun et al., 2019]). After 48 h, media were removed and fresh media containing compound 1a and analogs were added. Following 5 h of incubation, cell supernatants were collected, and analyzed using MSD-ELISA for Aβ and sAPPα and western blot for sAPPβ.
We focused on IMTi-1 and its analogs 1d, 1f and 1p. […] To test whether these compounds lower Aβ levels by affecting the BACE and/or γ-secretase cleavages, we transfected wild-type (wt) cells with APP-FL and APP βCTF (C99), respectively, and incubated the cells with IMTi-1 (isomer) and analogs 1d, 1f and 1p. We used BACE inhibitor, MK8931, and γ-secretase inhibitor, DAPT, as controls and performed the experiments and processed the results as described previously ([Sun et al., 2019]).

[3] = test system: N2a695 cells; assay: Aβ38, Aβ40, Aβ42 in conditioned media of N2a695 cells, MSD ELISA; type: cell-based; details: N2a695 cell supernatant, 5 h, single experiment; remark: listed apart in the source
Method: (§1) N2a695 were cultured in 1:1 OptiMem Reduced Serum Media (Life Technologies): Dulbecco’s Modified Eagle Medium ([+] 4.5 g/L D-glucose [+] L-Glutamine; [−] Sodium pyruvate (Life Technologies) supplemented with 5% fetal bovine serum, 0.4% Penstrep and 0.4% Geneticin and incubated at 37°C in 5% CO2. Antibodies were obtained from The Laboratory of Molecular and Cellular Neuroscience at The Rockefeller University. Human Aβ40 and Aβ42 ELISA plates (Life Technologies) and Plus MSD (Mesoscale Discovery) plates for Aβ Peptide (Aβ38, Aβ40 and Aβ42) Panel 1 (6E10) Kit (Catalog number K15200G) were obtained from Thermo Fisher, Life Technologies and Meso Scale Discovery.
(§2) N2a695 cells were used to screen all new compounds and in the follow-up studies with compounds found active in the preliminary screen. In a typical experiment, 6-well tissue culture plates (Corning) were seeded at 4.0 × 10^5–4.5 × 10^5 N2a695 cells/mL, 2 mL/well for overnight incubation. When cells were >95% confluent, media were exchanged with fresh media containing 10 µM solutions of compounds or DMSO carrier alone and cells were incubated at 37°C in 5% CO2 for 5 h. Culture media were collected and soluble Aβ concentrations in the media were determined by ELISA or MSD plates for human Aβ peptides as per manufacturer instructions. Signals for Aβ were measured using Perkin Elmer Envision and SQ120 MSD ELISA reader. Follow-up studies with N2a695 cells were performed similarly.
Similarly, we evaluated all IMTi-1 and IMTi-2 analogs, including the Boc-protected compounds, using N2a695 cells. […] To further examine the activities of the active analogs and whether IMTi’s has any bias on amyloidogenic vs. nonamyloidogenic cleavage of APP, we retested dozens of IMTi-1 and 2 analogs, including several found active in the screening assay and some tested for the first time using N2a695 cells as above, and performed MSD ELISA of the conditioned media to measure Aβ40, Aβ38, and Aβ42 peptides simultaneously.

[4] = In vivo brain permeability and retention, LC-MS/MS of brain and plasma; parameters: species or system C57BL/6J WT mice; details: for concentration at 4 h: C57BL/6J, mouse, ip, 2 months old WT mice, 50 mg/kg i.p., 4 h after injection, mesylate salt
Method: All procedures involving animals were approved by The Rockefeller University Institutional Animal Care and Use Committee and were in accordance with the National Institutes of Health guidelines. […] Mice were euthanized 4 h post drug administration and brain hemispheres and plasma were harvested and collected in pre-weighted tubes and snap-frozen in liquid nitrogen. To measure brain and plasma concentrations of the specific compounds, mouse brain tissue was homogenized and extracted using Ethanol, and plasma samples were extracted using Acetonitrile. Concentration of the drug and metabolites in brain and in plasma was determined by LC-MS/MS analysis.
After tubes were weighed to calculate brain weight and thawed to room temperature, 1 mL of EtOH (200 Proof) was added to the microcentrifuge tubes containing the harvested right brain hemispheres. 10 μL of 1 µM internal standard (ABG190, a synthetic analog of 1a) was added to each tube and samples were sonicated to homogeneity (∼2 min). Tubes were shaken at 40 min at room temperature (1K RPM) and centrifuged for 8 min at 13K RPM. The supernatant (0.9 mL) was transferred to a new collection tube and 0.5 mL EtOH was added to the pellet for a second round of extraction as described above. 600 μL of the supernatant was combined with the first collection before samples were submitted for LCMS-MS analysis ([Sun et al., 2019]).
300 μL of acetonitrile was added to collected blood samples. 10 μL of 1 µM internal standard (ABG190) was added to each tube and samples were sonicated to homogeneity (∼2 min). Tubes were […] at 13 K RPM for 9 min 300 μL of the supernatant was collected and combined with 500 µL of 5 mM ammonium formate before samples were submitted for LCMS-MS analysis ([Sun et al., 2019]).

[5] = test system: BACE1; parameters: method as in Netzer et al., 2017; details: two in vitro BACE1 assays, concentrations up to 100 μM; ref Netzer et al., 2017; cited from earlier work
[6] = test system: N2a695 cells; assay: Screening of Aβ production in N2a695 cells (Aβ ELISA of cell supernatants); type: cell-based
Method: as §1, §2
Specifically, we exposed N2a695 cells to increasing concentrations of each compound and measured the production of Aβ38, 40, and 42. […] Remarkably, this occurs for all Aβ peptides tested shorter than 40 amino acids (Figure 2C). Moreover, for some compounds that modulate γ-secretase activity most conspicuously at 5 μM, this effect vanishes at 10 μM, relative to controls (Figure 2B, C). […]

[7] = biological target: T1, Abl1 kinase (Homo sapiens, UniProt P00519); assay: In vitro kinase activity assay (split-luciferase, Luceome); type: biochemical; details: read-out: IC50, Abl kinase
T1 sequence (P00519 242-493 limits assumed): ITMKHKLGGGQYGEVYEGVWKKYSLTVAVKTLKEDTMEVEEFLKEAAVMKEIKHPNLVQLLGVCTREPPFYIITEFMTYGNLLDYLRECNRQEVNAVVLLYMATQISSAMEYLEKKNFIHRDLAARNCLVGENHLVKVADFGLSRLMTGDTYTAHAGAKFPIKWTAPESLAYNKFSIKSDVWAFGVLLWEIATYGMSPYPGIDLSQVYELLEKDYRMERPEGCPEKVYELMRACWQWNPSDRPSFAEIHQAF
Method: The assay was performed by Luceome Biotechnologies, LLC. Typically, 10 mM stock solutions of the compounds were diluted in DMSO to a concentration of 250 μM. Prior to initiating the assay, all test compounds were evaluated for false positive against split-luciferase ([Jester et al., 2010]). For kinase assays, each Cfluc-Kinase was translated along with Fos-Nfluc using a cell-free system (rabbit reticulocyte lysate) at 30°C for 90 min 24 μL aliquot of this lysate containing either 1 μL of DMSO (for no-inhibitor control) or compound solution in DMSO (10 μM final concentration) was incubated for 30 min at room temperature followed by 1 h in presence of a kinase specific probe. 80 μL of luciferin assay reagent was added to each solution and luminescence was immediately measured on a luminometer. The percent Inhibition was calculated using the following equation: % Inhibition = (ALUcontrol–ALUsamplex 100)/ALUcontrol.

Structure (SMILES)	activity at 5 µM ([1]; read-out: % Aβ38 of DMSO ctrl) [%]	activity at 5 µM ([1]; read-out: % Aβ40 of DMSO ctrl) [%]	activity at 5 µM ([1]; read-out: % Aβ42 of DMSO ctrl) [%]	BACE and γ-secretase cleavage of APP, Aβ levels [2]	activity at 10 µM ([3]; read-out: % Aβ38 of DMSO ctrl) [%]	activity at 10 µM ([3]; read-out: % Aβ40 of DMSO ctrl) [%]	activity at 10 µM ([3]; read-out: % Aβ42 of DMSO ctrl) [%]	Brain exposure ([4]; 2 months old mice, 4 h post administration)	concentration at 4 h ([4]; brain, read-out: Brain concentration) [ng/g]	concentration at 4 h ([4]; plasma, read-out: Plasma concentration) [ng/mL]	Inhibition of BACE1 enzymatic activity [5]	Activity in Aβ production assays ([6]; N2a695 cells)	IC50 [7] [µM]	Aβ38 levels relative to controls ([6]; 5 μM, N2a695 cells, ELISA)	Reduction of Aβ40 levels compared with IMT ([6]; 10 µM, N2a695 cell supernatants, anti-Aβ40 ELISA)
Cc1ccccc1Nc1nccc(-c2cccc(NC(=O)c3ccc(N4CCN(C)CC4)cc3)c2)n1 [Compound 1d]	60	34	28	lower BACE and γ-secretase cleavage of APP	22	14	11								
Cc1ccccc1Nc1nccc(-c2cccc(NC(=O)c3ccc(CCN(C)C)cc3)c2)n1 [Compound 1f]	113	52	45	lower BACE and γ-secretase cleavage of APP	80	29	26	high brain exposure	92	550					
CN(C)CCc1ccc(C(=O)Nc2cccc(-c3ccnc(Nc4cccnc4)n3)c2)cc1 [Compound 1p]	58	41	38	lower BACE and γ-secretase cleavage of APP	24	18	15								
Cc1ccc(NC(=O)c2ccc(CN3CCN(C)CC3)cc2)cc1Nc1nccc(-c2cccnc2)n1 [IMT, imatinib mesylate, reference compound]											does not inhibit BACE1 enzymatic activity	active			
Cc1ccccc1Nc1nccc(-c2cncc(NC(=O)c3ccc(CN4CCN(C)CC4)cc3)c2)n1 [IMTi-1]				lower BACE and γ-secretase cleavage of APP								active	1.17	boost levels of Aβ38 above controls	reduced Aβ40 levels more strongly than IMT

Source: article PMC11493595, “Stretching the structural envelope of imatinib to reduce β-amyloid production by modulating both β- and γ-secretase cleavages of APP” (Frontiers in Chemistry, 2024)
